Laboratory results: US20250145665A1, “MACROCYCLIC PEPTIDES USEFUL AS MODULATORS OF TNF ALPHA” (Bristol-Myers Squibb Company, priority 2023, published 2025)
Positions of bridges follow the written chain, without caps; N, C: chain ends. Non-standard residues stand in square brackets, D forms with d. Residues, ends and D or L forms follow the SMILES beside them. Bip(4'-COOH) = N[C@@H](Cc1ccc(-c2ccc(C(=O)O)cc2)cc1)C(=O)O; Bip(4'-NHAc) = CC(=O)Nc1ccc(-c2ccc(C[C@H](N)C(=O)O)cc2)cc1; Ala(morpholin-4-yl) = N[C@@H](CN1CCOCC1)C(=O)O; Phe(3-CONH2) = NC(=O)c1cccc(C[C@H](N)C(=O)O)c1; Bip = N[C@@H](Cc1ccc(-c2ccccc2)cc1)C(=O)O; Phe(2-Me) = Cc1ccccc1C[C@H](N)C(=O)O; 2Pal = N[C@@H](Cc1ccccn1)C(=O)O; Chg = N[C@H](C(=O)O)C1CCCCC1; Sar = CNCC(=O)O

Molecular target: TNFα (Homo sapiens, UniProt P01375)
Test: TNF-Induced HEK-Blue Assay
Assay type: cell-based
Conditions: HEK-Blue-CD40L cells, NF-kB-driven secreted alkaline phosphatase reporter; TNFα 0.5 ng/ml; 18 h; read-out: TNF induced HEK-Blue assay IC50 value

Sequence of TNFα (P01375 77-233 limits assumed): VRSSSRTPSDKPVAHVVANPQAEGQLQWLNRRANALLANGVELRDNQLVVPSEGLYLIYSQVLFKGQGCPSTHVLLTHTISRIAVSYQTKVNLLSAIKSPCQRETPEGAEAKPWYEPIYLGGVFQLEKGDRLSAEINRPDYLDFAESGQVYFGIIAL

`CC(=O)Nc1ccc(-c2ccc(C[C@@H]3NC(=O)[C@H](Cc4ccc(-c5ccccc5)cc4)NC(=O)[C@H](CN4CCOCC4)NC(=O)CSC[C@@H](C(=O)NCC(N)=O)NC(=O)[C@H](CC(C)C)NC(=O)[C@H](Cc4ccc(O)cc4)NC(=O)[C@H](C(C)C)NC(=O)[C@@H]4CCCN4C(=O)[C@H](C(C)C)NC(=O)[C@H](CCCNC(=N)N)NC(=O)[C@H](CC(=O)O)NC(=O)[C@@H]4CCCN4C(=O)CN(C)C3=O)cc2)cc1` [Example 196] ({CH2CO}-[Ala(morpholin-4-yl)][Bip][Bip(4'-NHAc)][Sar]PDRVPVYLCG-NH2; thioether N-13) and `CC(=O)Nc1ccc(-c2ccc(C[C@@H]3NC(=O)[C@H](Cc4ccc(-c5ccccc5)cc4)NC(=O)[C@H](CN4CCOCC4)NC(=O)CSC[C@@H](C(=O)NCC(N)=O)NC(=O)[C@H](CC(C)C)NC(=O)[C@H](Cc4ccc(O)cc4)NC(=O)[C@H](C4CCCCC4)NC(=O)[C@@H]4CCCN4C(=O)[C@H](C(C)C)NC(=O)[C@H](CCCNC(=N)N)NC(=O)[C@H](CC(=O)O)NC(=O)[C@@H]4CCCN4C(=O)CN(C)C3=O)cc2)cc1` [Example 210] ({CH2CO}-[Ala(morpholin-4-yl)][Bip][Bip(4'-NHAc)][Sar]PDRVP[Chg]YLCG-NH2; thioether N-13) cannot be ordered by IC50: under 50 nM for the first, under 50 nM for the second.

`CC(=O)Nc1ccc(-c2ccc(C[C@@H]3NC(=O)[C@H](Cc4ccc(-c5ccccc5)cc4)NC(=O)[C@H](Cc4c[nH]c5ccccc45)NC(=O)CSC[C@@H](C(=O)NCC(N)=O)NC(=O)[C@H](CC(C)C)NC(=O)[C@H](Cc4ccc(O)cc4)NC(=O)[C@H](C(C)C)NC(=O)[C@@H]4CCCN4C(=O)[C@H](C(C)C)NC(=O)[C@@H](CCCNC(=N)N)NC(=O)[C@H](CC(=O)O)NC(=O)[C@H](Cc4ccccn4)NC(=O)CN(C)C3=O)cc2)cc1` [Example 197] ({CH2CO}-W[Bip][Bip(4'-NHAc)][Sar][2Pal]D[dR]VPVYLCG-NH2; thioether N-13) and `CC(=O)Nc1ccc(-c2ccc(C[C@@H]3NC(=O)[C@H](Cc4ccc(-c5ccccc5)cc4)NC(=O)[C@H](CN4CCOCC4)NC(=O)CSC[C@@H](C(=O)NCC(N)=O)NC(=O)[C@H](CC(C)C)NC(=O)[C@H](Cc4ccc(O)cc4)NC(=O)[C@H](C(C)C)NC(=O)[C@@H]4CCCN4C(=O)[C@H](C(C)C)NC(=O)[C@H](CCCNC(=N)N)NC(=O)[C@H](CC(=O)O)NC(=O)[C@H](Cc4ccccn4)NC(=O)CN(C)C3=O)cc2)cc1` [Example 208] ({CH2CO}-[Ala(morpholin-4-yl)][Bip][Bip(4'-NHAc)][Sar][2Pal]DRVPVYLCG-NH2; thioether N-13) fall in the same range of IC50: 50 to 200 nM for the first, 50 to 200 nM for the second.

First: CC(=O)Nc1ccc(-c2ccc(C[C@@H]3NC(=O)[C@H](Cc4ccc(-c5ccc(C(=O)O)cc5)cc4)NC(=O)[C@H](CN4CCOCC4)NC(=O)CSC[C@@H](C(=O)NCC(N)=O)NC(=O)[C@H](CC(C)C)NC(=O)[C@H](CCCNC(=N)N)NC(=O)[C@H](C)NC(=O)[C@@H]4CCCN4C(=O)[C@H](C(C)C)NC(=O)[C@@H](CCCNC(=N)N)NC(=O)[C@H](CC(=O)O)NC(=O)[C@@H]4CCCN4C(=O)CN(C)C3=O)cc2)cc1 [Example 198] ({CH2CO}-[Ala(morpholin-4-yl)][Bip(4'-COOH)][Bip(4'-NHAc)][Sar]PD[dR]VPARLCG-NH2; thioether N-13)
Second: CC(C)C[C@@H]1NC(=O)[C@H](CCCNC(=N)N)NC(=O)[C@H](C(C)C)NC(=O)[C@@H]2CCCN2C(=O)[C@H](C(C)C)NC(=O)[C@@H](CCCNC(=N)N)NC(=O)[C@H](CC(=O)O)NC(=O)[C@@H]2CCCN2C(=O)CN(C)C(=O)[C@H](Cc2ccc(-c3ccccc3)cc2)NC(=O)[C@H](Cc2ccc(-c3ccccc3)cc2)NC(=O)[C@H](CN2CCOCC2)NC(=O)CSC[C@@H](C(=O)NCC(N)=O)NC1=O [Example 202] ({CH2CO}-[Ala(morpholin-4-yl)][Bip][Bip][Sar]PD[dR]VPVRLCG-NH2; thioether N-13)
The IC50 of the first is lower: under 50 nM for the first, 200 to 2000 nM for the second.

Compared with `CC(=O)Nc1ccc(-c2ccc(C[C@@H]3NC(=O)[C@H](Cc4ccc(-c5ccc(C(=O)O)cc5)cc4)NC(=O)[C@H](CN4CCOCC4)NC(=O)CSC[C@@H](C(=O)NCC(N)=O)NC(=O)[C@H](CC(C)C)NC(=O)[C@H](Cc4ccccc4C)NC(=O)[C@H](C(C)C)NC(=O)[C@@H]4CCCN4C(=O)[C@H](C(C)C)NC(=O)[C@@H](CCCNC(=N)N)NC(=O)[C@H](CC(=O)O)NC(=O)[C@H](Cc4ccccn4)NC(=O)CN(C)C3=O)cc2)cc1` [Example 199] ({CH2CO}-[Ala(morpholin-4-yl)][Bip(4'-COOH)][Bip(4'-NHAc)][Sar][2Pal]D[dR]VPV[Phe(2-Me)]LCG-NH2; thioether N-13), `CC(=O)Nc1ccc(-c2ccc(C[C@@H]3NC(=O)[C@H](Cc4ccc(-c5ccc(C(=O)O)cc5)cc4)NC(=O)[C@H](CN4CCOCC4)NC(=O)CSC[C@@H](C(=O)NCC(N)=O)NC(=O)[C@H](CC(C)C)NC(=O)[C@H](Cc4cccc(C(N)=O)c4)NC(=O)[C@H](C(C)C)NC(=O)[C@@H]4CCCN4C(=O)[C@H](C(C)C)NC(=O)[C@@H](CCCNC(=N)N)NC(=O)[C@H](CC(=O)O)NC(=O)[C@H](Cc4ccccn4)NC(=O)CN(C)C3=O)cc2)cc1` [Example 200] ({CH2CO}-[Ala(morpholin-4-yl)][Bip(4'-COOH)][Bip(4'-NHAc)][Sar][2Pal]D[dR]VPV[Phe(3-CONH2)]LCG-NH2; thioether N-13) is higher in IC50: under 50 nM for the first, 50 to 200 nM for the second.

First: CC(=O)Nc1ccc(-c2ccc(C[C@@H]3NC(=O)[C@H](Cc4ccc(-c5ccccc5)cc4)NC(=O)[C@H](CN4CCOCC4)NC(=O)CSC[C@@H](C(=O)NCC(N)=O)NC(=O)[C@H](CC(C)C)NC(=O)[C@H](CCCNC(=N)N)NC(=O)[C@H](C4CCCCC4)NC(=O)[C@@H]4CCCN4C(=O)[C@H](C(C)C)NC(=O)[C@@H](CCCNC(=N)N)NC(=O)[C@H](CC(=O)O)NC(=O)[C@H](Cc4ccccn4)NC(=O)CN(C)C3=O)cc2)cc1 [Example 201] ({CH2CO}-[Ala(morpholin-4-yl)][Bip][Bip(4'-NHAc)][Sar][2Pal]D[dR]VP[Chg]RLCG-NH2; thioether N-13)
Second: CC(C)C[C@@H]1NC(=O)[C@H](CCCNC(=N)N)NC(=O)[C@H](C2CCCCC2)NC(=O)[C@@H]2CCCN2C(=O)[C@H](C(C)C)NC(=O)[C@@H](CCCNC(=N)N)NC(=O)[C@H](CC(=O)O)NC(=O)[C@H](Cc2ccccn2)NC(=O)CN(C)C(=O)[C@H](Cc2ccc(-c3ccccc3)cc2)NC(=O)[C@H](Cc2ccc(-c3ccccc3)cc2)NC(=O)[C@H](CN2CCOCC2)NC(=O)CSC[C@@H](C(=O)NCC(N)=O)NC1=O [Example 204] ({CH2CO}-[Ala(morpholin-4-yl)][Bip][Bip][Sar][2Pal]D[dR]VP[Chg]RLCG-NH2; thioether N-13)
The IC50 of the first is lower: under 50 nM for the first, 50 to 200 nM for the second.

Compared with `CC(=O)Nc1ccc(-c2ccc(C[C@@H]3NC(=O)[C@H](Cc4ccc(-c5ccccc5)cc4)NC(=O)[C@H](CN4CCOCC4)NC(=O)CSC[C@@H](C(=O)NCC(N)=O)NC(=O)[C@H](CC(C)C)NC(=O)[C@H](CCCNC(=N)N)NC(=O)[C@H](C(C)C)NC(=O)[C@@H]4CCCN4C(=O)[C@H](C(C)C)NC(=O)[C@@H](CCCNC(=N)N)NC(=O)[C@H](CC(=O)O)NC(=O)[C@H](Cc4ccccn4)NC(=O)CN(C)C3=O)cc2)cc1` [Example 203] ({CH2CO}-[Ala(morpholin-4-yl)][Bip][Bip(4'-NHAc)][Sar][2Pal]D[dR]VPVRLCG-NH2; thioether N-13), `CC(C)C[C@@H]1NC(=O)[C@H](CCCNC(=N)N)NC(=O)[C@H](C(C)C)NC(=O)[C@@H]2CCCN2C(=O)[C@H](C(C)C)NC(=O)[C@@H](CCCNC(=N)N)NC(=O)[C@H](CC(=O)O)NC(=O)[C@H](Cc2ccccn2)NC(=O)CN(C)C(=O)[C@H](Cc2ccc(-c3ccccc3)cc2)NC(=O)[C@H](Cc2ccc(-c3ccccc3)cc2)NC(=O)[C@H](CN2CCOCC2)NC(=O)CSC[C@@H](C(=O)NCC(N)=O)NC1=O` [Example 205] ({CH2CO}-[Ala(morpholin-4-yl)][Bip][Bip][Sar][2Pal]D[dR]VPVRLCG-NH2; thioether N-13) is higher in IC50: under 50 nM for the first, 50 to 200 nM for the second.

Compared with `CC(C)C[C@@H]1NC(=O)[C@H](CCCNC(=N)N)NC(=O)[C@H](C2CCCCC2)NC(=O)[C@@H]2CCCN2C(=O)[C@H](C(C)C)NC(=O)[C@@H](CCCNC(=N)N)NC(=O)[C@H](CC(=O)O)NC(=O)[C@@H]2CCCN2C(=O)CN(C)C(=O)[C@H](Cc2ccc(-c3ccccc3)cc2)NC(=O)[C@H](Cc2ccc(-c3ccccc3)cc2)NC(=O)[C@H](CN2CCOCC2)NC(=O)CSC[C@@H](C(=O)NCC(N)=O)NC1=O` [Example 206] ({CH2CO}-[Ala(morpholin-4-yl)][Bip][Bip][Sar]PD[dR]VP[Chg]RLCG-NH2; thioether N-13), `CC(C)C[C@@H]1NC(=O)[C@H](CCCNC(=N)N)NC(=O)[C@H](C2CCCCC2)NC(=O)[C@@H]2CCCN2C(=O)[C@H](C(C)C)NC(=O)[C@H](CCCNC(=N)N)NC(=O)[C@H](CC(=O)O)NC(=O)[C@@H]2CCCN2C(=O)CN(C)C(=O)[C@H](Cc2ccc(-c3ccccc3)cc2)NC(=O)[C@H](Cc2ccc(-c3ccccc3)cc2)NC(=O)[C@H](CN2CCOCC2)NC(=O)CSC[C@@H](C(=O)NCC(N)=O)NC1=O` [Example 207] ({CH2CO}-[Ala(morpholin-4-yl)][Bip][Bip][Sar]PDRVP[Chg]RLCG-NH2; thioether N-13) is higher in IC50: under 50 nM for the first, 200 to 2000 nM for the second.

`CC(C)C[C@@H]1NC(=O)[C@H](Cc2ccc(O)cc2)NC(=O)[C@H](C2CCCCC2)NC(=O)[C@@H]2CCCN2C(=O)[C@H](C(C)C)NC(=O)[C@@H](CCCNC(=N)N)NC(=O)[C@H](CC(=O)O)NC(=O)[C@@H]2CCCN2C(=O)CN(C)C(=O)[C@H](Cc2ccc(-c3ccccc3)cc2)NC(=O)[C@H](Cc2ccc(-c3ccccc3)cc2)NC(=O)[C@H](CN2CCOCC2)NC(=O)CSC[C@@H](C(=O)NCC(N)=O)NC1=O` [Example 209] ({CH2CO}-[Ala(morpholin-4-yl)][Bip][Bip][Sar]PD[dR]VP[Chg]YLCG-NH2; thioether N-13) and `CC(=O)Nc1ccc(-c2ccc(C[C@@H]3NC(=O)[C@H](Cc4ccc(-c5ccccc5)cc4)NC(=O)[C@H](CN4CCOCC4)NC(=O)CSC[C@@H](C(=O)NCC(N)=O)NC(=O)[C@H](CC(C)C)NC(=O)[C@H](Cc4cnc[nH]4)NC(=O)[C@H](C(C)C)NC(=O)[C@@H]4CCCN4C(=O)[C@H](C(C)C)NC(=O)[C@@H](CCCNC(=N)N)NC(=O)[C@H](CC(=O)O)NC(=O)[C@H](Cc4cnc[nH]4)NC(=O)CN(C)C3=O)cc2)cc1` [Example 211] ({CH2CO}-[Ala(morpholin-4-yl)][Bip][Bip(4'-NHAc)][Sar]HD[dR]VPVHLCG-NH2; thioether N-13) fall in the same range of IC50: 200 to 2000 nM for the first, 200 to 2000 nM for the second.
